Assay results taken from US10941152B2, “Pyrazole compounds as modulators of FSHR and uses thereof” (TOCOPHERX, INC., priority 2014, dated 2021).

What was measured:
[1] = target: T1, follicle-stimulating hormone (FSH) receptor (Rattus norvegicus, UniProt P20395); test: Rat granulosa EC50 FSH (Assay B); type: cell-based
T1 construct: endogenous in cells; host or cells: rat granulosa cells
T1 sequence (P20395 18-692): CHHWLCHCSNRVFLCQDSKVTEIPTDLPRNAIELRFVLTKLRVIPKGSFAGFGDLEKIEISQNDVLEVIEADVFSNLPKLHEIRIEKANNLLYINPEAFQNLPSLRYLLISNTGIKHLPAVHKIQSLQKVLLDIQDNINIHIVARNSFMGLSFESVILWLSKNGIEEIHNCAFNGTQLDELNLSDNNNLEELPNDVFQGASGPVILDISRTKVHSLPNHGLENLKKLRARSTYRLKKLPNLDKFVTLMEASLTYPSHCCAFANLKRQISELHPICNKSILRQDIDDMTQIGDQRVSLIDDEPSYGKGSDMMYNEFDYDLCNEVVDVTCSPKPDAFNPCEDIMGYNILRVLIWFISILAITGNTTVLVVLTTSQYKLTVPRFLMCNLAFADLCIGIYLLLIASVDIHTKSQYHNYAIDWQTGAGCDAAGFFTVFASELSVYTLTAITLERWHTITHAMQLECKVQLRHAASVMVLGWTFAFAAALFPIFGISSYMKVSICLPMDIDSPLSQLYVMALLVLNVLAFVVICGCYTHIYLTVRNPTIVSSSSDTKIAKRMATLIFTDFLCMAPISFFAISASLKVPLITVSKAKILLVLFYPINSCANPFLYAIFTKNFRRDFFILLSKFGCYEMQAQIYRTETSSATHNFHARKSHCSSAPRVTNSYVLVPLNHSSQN
Description: Example 25. Rat granulosa EC50 FSH (Assay B)
The assay was performed pursuant to the teaching of Yanofsky et al. (2006) Allosteric activation of the follicle-stimulating hormone (FSH) receptor by selective, nonpeptide agonists (JBC 281(19): 13226-13233, which is incorporated by reference in the disclosure of the invention).

FSHR = target: T2, FSHR (Homo sapiens, UniProt P23945); test: EC50 of cyclic AMP production in CHO FSHR cells + EC20 FSH (Assay A); type: cell-based; conditions: cyclic AMP production in CHO FSHR cells + EC20 FSH (0.265 pM), HTRF
T2 construct: expressed in transfected cells; host or cells: CHO (Cho-FSHR-LUC-1-1-43)
T2 sequence (P23945 18-695): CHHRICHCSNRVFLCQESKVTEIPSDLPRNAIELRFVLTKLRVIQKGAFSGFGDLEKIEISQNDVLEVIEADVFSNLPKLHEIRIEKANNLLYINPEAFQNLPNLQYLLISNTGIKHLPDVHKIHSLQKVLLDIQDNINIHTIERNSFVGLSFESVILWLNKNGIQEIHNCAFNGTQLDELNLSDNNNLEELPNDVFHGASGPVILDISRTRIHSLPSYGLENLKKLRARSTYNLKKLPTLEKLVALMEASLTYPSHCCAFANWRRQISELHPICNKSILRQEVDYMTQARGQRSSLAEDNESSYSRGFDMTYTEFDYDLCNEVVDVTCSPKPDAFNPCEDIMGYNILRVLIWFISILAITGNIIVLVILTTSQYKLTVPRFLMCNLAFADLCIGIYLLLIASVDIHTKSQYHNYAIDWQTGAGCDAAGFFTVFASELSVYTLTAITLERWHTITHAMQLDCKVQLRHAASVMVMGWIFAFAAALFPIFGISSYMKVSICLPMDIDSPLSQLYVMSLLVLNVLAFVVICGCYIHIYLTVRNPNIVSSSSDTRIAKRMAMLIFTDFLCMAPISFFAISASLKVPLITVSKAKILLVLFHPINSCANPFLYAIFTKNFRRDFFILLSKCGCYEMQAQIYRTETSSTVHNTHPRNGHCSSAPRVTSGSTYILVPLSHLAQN
Description: Example 24. EC50 of cyclic AMP production in CHO FSHR cells+EC20 FSH (Assay A)
2500 Cho-FSHR-LUC-1-1-43 cells were plated per well in 5 al of phenol red free DMEM/F12+1% FBS. Cells were plated in 384 well, solid white low volume plates (Greiner 784075) by Multidrop. Cells were assayed by adding 100 al of 2×EC20 FSH/IBMX in DMEM/F12+0.1% BSA) by Multidrop to 2 al of test compound stamped in 384 well plates (compounds are diluted 1:50). The final FSH concentration was 0.265 pM, and the final IBMX concentration was 200 μM. The compound plate map was as follows: Column 1: 2 μl of DMSO; Column 2: 2 μl of DMSO; Columns 3-12 and 13-24: 2 μl of test compound, diluted 1:4 in 100% DMSO, or 2 μl of FSH, diluted 1:4 in DMEM/F12+0.1% BSA. The starting concentration for FSH was 50 nM (final concentration was 0.5 nM). Furthermore, Column 23 contained 2 μl of EC100 FSH reference (100×) (diluted in DMEM/F12+0.1% BSA) at a final concentration of 0.5 nM, and Column 24 contained 2 μl of 1 mM AS707664/2 reference compound 2. 5 μl of compound+EC20 FSH mixture were transferred to cell plates (1:2 dilution into 5 μl of cell media) The plates were incubated at 37° C. for 1 h. 10 μl of mixed HTRF (CisBio #62AM4PEC) reagents were added per well and incubated at room temperature for 1 h. The plates were read on Envision using the cAMP HTRF—low volume 384 well protocol. The readout was the calculated fluorescence ratio (665 nm/620 nm). Values given in percent (%) indicate the percental effect (response) at a certain concentration of agonist relative to the maximum response of the FSH standard.

SMILES: COc1cc2c(cc1-c1cncc(C(=O)N(C)C)c1)-c1c(c(C(=O)N3CCOCC3(C)C)nn1-c1cc(Cl)cc(Cl)c1)CO2 [Compound 101, 5-(1-(3,5-dichlorophenyl)-3-(3,3-dimethylmorpholine-4-carbonyl)-7-methoxy-1,4-dihydrochromeno[4,3-c]pyrazol-8-yl)-N,N-dimethylnicotinamide]
- EC50 [1]: 10 to 100 nM
- EC50 (FSHR): < 10 nM

SMILES: COc1cc2c(cc1-c1cncc(C(N)=O)c1)-c1c(c(C(=O)N(C)C(C)(C)C(N)=O)nn1-c1cc(F)cc(F)c1)CO2 [Compound 104, N-(1-amino-2-methyl-1-oxopropan-2-yl)-8-(5-carbamoylpyridin-3-yl)-1-(3,5-difluorophenyl)-7-methoxy-N-methyl-1,4-dihydrochromeno[4,3-c]pyrazole-3-carboxamide]
- EC50 [1]: > 500 nM
- EC50 (FSHR): 10 to 100 nM

SMILES: COc1cc(Cl)cc(-n2nc(C(=O)N(C)C(C)(C)C)c3c2-c2cc(-c4cncc(C(N)=O)c4)c(OC)cc2OC3)c1 [Compound 156]
- EC50 [1]: 10 to 100 nM
- EC50 (FSHR): < 10 nM

SMILES: COc1cc2c(cc1-c1cc(C(N)=O)ncn1)-c1c(c(C(=O)N(C)C(C)(C)C)nn1-c1cc(Cl)cc(Cl)c1)CO2 [Compound 114, N-tert-butyl-8-(6-carbamoylpyrimidin-4-yl)-1-(3,5-dichlorophenyl)-7-methoxy-N-methyl-1,4-dihydrochromeno[4,3-c]pyrazole-3-carboxamide]
- EC50 [1]: 101 to 500 nM
- EC50 (FSHR): 10 to 100 nM

SMILES: COc1cc2c(cc1-c1ccn(C)n1)-c1c(c(C(=O)N3CC[S+]([O-])CC3(C)C)nn1-c1cc(Cl)cc(Cl)c1)CO2 (stereo not drawn) [Compound 5, 4-{[1-(3,5-dichlorophenyl)-7-methoxy-8-(1-methyl-1H-pyrazol-3-yl)-1H,4H-chromeno[4,3-c]pyrazol-3-yl]carbonyl}-3,3-dimethyl-1$1^4,4-thiomorpholin-1-one]
- EC50 [1]: 101 to 500 nM
- EC50 (FSHR): 10 to 100 nM

SMILES: COc1cc2c(cc1-c1ccn(C)n1)-c1c(c(C(=O)N(C)C(C)(C)C)nn1-c1cc(F)cc(Cl)c1)CO2 [Compound 27, N-tert-butyl-1-(3-chloro-5-fluorophenyl)-7-methoxy-N-methyl-8-(1-methyl-1H-pyrazol-3-yl)-1,4-dihydrochromeno[4,3-c]pyrazole-3-carboxamide]
- EC50 [1]: > 500 nM
- EC50 (FSHR): 10 to 100 nM

SMILES: COc1cc2c(cc1-c1cc(Cl)cc(C(N)=O)c1)-c1c(c(C(=O)N(C)C(C)(C)C)nn1-c1cc(F)cc(F)c1)CO2 [Compound 165]
- EC50 [1]: 10 to 100 nM
- EC50 (FSHR): < 10 nM

SMILES: COC(=O)[C@H]1C[C@@H]1c1cc2c(cc1OC)OCc1c(C(=O)N(C)C(C)(C)C)nn(-c3cc(F)cc(F)c3)c1-2 (racemic) [Compound 206]
- EC50 [1]: 101 to 500 nM
- EC50 (FSHR): < 10 nM

SMILES: COc1cc2c(cc1-c1cnn(CC(N)=O)c1)-c1c(c(C(=O)N(C)C(C)(C)C)nn1-c1cc(Cl)cc(Cl)c1)CO2 [Compound 2, 8-(1-(2-amino-2-oxoethyl)-1H-pyrazol-4-yl)-N-tert-butyl-1-(3,5-dichlorophenyl)-7-methoxy-N-methyl-1,4-dihydrochromeno[4,3-c]pyrazole-3-carboxamide]
- EC50 [1]: 10 to 100 nM
- EC50 (FSHR): < 10 nM

SMILES: COc1cc(OC)cc(-n2nc(C(=O)N(C)C(C)(C)C)c3c2-c2cc(-c4nn(C)cc4C#N)c(OC)cc2OC3)c1 [Compound 146, N-tert-butyl-8-(4-cyano-1-methyl-1H-pyrazol-3-yl)-1-(3,5-dimethoxyphenyl)-7-methoxy-N-methyl-1,4-dihydrochromeno[4,3-c]pyrazole-3-carboxamide]
- EC50 [1]: 101 to 500 nM
- EC50 (FSHR): < 10 nM

SMILES: COc1cc2c(cc1-c1cncc(C#N)c1)-c1c(c(C(=O)N(C)C(C)(C)C#N)nn1-c1cc(F)cc(F)c1)CO2 [Compound 105, N-(2-cyanopropan-2-yl)-8-(5-cyanopyridin-3-yl)-1-(3,5-difluorophenyl)-7-methoxy-N-methyl-1,4-dihydrochromeno[4,3-c]pyrazole-3-carboxamide]
- EC50 [1]: 10 to 100 nM
- EC50 (FSHR): < 10 nM

SMILES: COc1cc2c(cc1-c1cnccc1C(N)=O)-c1c(c(C(=O)N(C)C(C)(C)C)nn1-c1cc(Cl)cc(Cl)c1)CO2 [Compound 153]
- EC50 [1]: 10 to 100 nM
- EC50 (FSHR): < 10 nM

SMILES: COc1cc2c(cc1-c1cccc(C(=O)O)c1)-c1c(c(C(=O)N(C)C(C)(C)C)nn1-c1cc(Cl)cc(Cl)c1)CO2 [Compound 179]
- EC50 [1]: 101 to 500 nM
- EC50 (FSHR): 10 to 100 nM

SMILES: COc1cc2c(cc1-c1cncc(C#N)c1)-c1c(c(C(=O)N3CCOCC3(C)C)nn1-c1cc(Cl)cc(Cl)c1)CO2 [Compound 12, 5-(1-(3,5-dichlorophenyl)-3-(3,3-dimethylmorpholine-4-carbonyl)-7-methoxy-1,4-dihydrochromeno[4,3-c]pyrazol-8-yl)nicotinonitrile]
- EC50 [1]: 10 to 100 nM
- EC50 (FSHR): < 10 nM

SMILES: COc1cc2c(cc1-c1cccc(F)c1C#N)-c1c(c(C(=O)N(C)C(C)(C)C)nn1-c1cc(Cl)cc(Cl)c1)CO2 [Compound 25, N-tert-butyl-8-(2-cyano-3-fluorophenyl)-1-(3,5-dichlorophenyl)-7-methoxy-N-methyl-1,4-dihydrochromeno[4,3-c]pyrazole-3-carboxamide]
- EC50 [1]: 10 to 100 nM
- EC50 (FSHR): < 10 nM

SMILES: COc1cc2c(cc1-c1cnn(CC(=O)O)c1)-c1c(c(C(=O)N(C)C(C)(C)C)nn1-c1cc(Cl)cc(Cl)c1)CO2 [Compound 81, 2-(4-(3-(tert-butyl(methyl)carbamoyl)-1-(3,5-dichlorophenyl)-7-methoxy-1,4-dihydrochromeno[4,3-c]pyrazol-8-yl)-1H-pyrazol-1-yl)acetic acid]
- EC50 [1]: 101 to 500 nM
- EC50 (FSHR): 10 to 100 nM

SMILES: COc1cc2c(cc1-c1cccnc1F)-c1c(c(C(=O)N(CCO)C(C)(C)C)nn1-c1cc(Cl)cc(Cl)c1)CO2 [Compound 123, N-tert-butyl-1-(3,5-dichlorophenyl)-8-(2-fluoropyridin-3-yl)-N-(2-hydroxyethyl)-7-methoxy-1,4-dihydrochromeno[4,3-c]pyrazole-3-carboxamide]
- EC50 [1]: 10 to 100 nM
- EC50 (FSHR): < 10 nM

SMILES: COc1cc2c(cc1-c1cncc(CO)c1)-c1c(c(C(=O)N3CCOCC3(C)C)nn1-c1cc(Cl)cc(Cl)c1)CO2 [Compound 24, (1-(3,5-dichlorophenyl)-8-(5-(hydroxymethyl)pyridin-3-yl)-7-methoxy-1,4-dihydrochromeno[4,3-c]pyrazol-3-yl)(3,3-dimethylmorpholino)methanone]
- EC50 [1]: 10 to 100 nM
- EC50 (FSHR): < 10 nM
